Measurements as given in patent US20240109853A1 (Shanghai Yao Yuan Biotechnology Co., Ltd., priority 2020, published 2024).
Like-named read-outs stand apart in the source and are kept apart here.

Legend:
ALPK1 = ALPK1 (Homo sapiens (Human), UniProt Q96QP1); assay: ALPK1 in vitro kinase assay (HTRF of TIFA phosphorylation); type: biochemical
[1] = system: ALPK1-dependent NFκB reporter gene activation in HEK293 cells stably expressing an NF-kB reporter (G9 cells); assay: NFκB gene reporter alkaline phosphatase assay; type: cell-based; conditions: read-out: NFkB assay IC50
In short: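 Inhibition of ALPK1-driven NF-κB activation: compounds added to reporter-bearing HEK293 (G9) cells 30 min before the agonist D-glycero-D-manno-6-fluoro-heptose-1β-S-ADP. Secreted phosphatase detected by pNPP colorimetry, with IC50 derived by logistic curve fitting.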

Chain of ALPK1 (Q96QP1 whole entry): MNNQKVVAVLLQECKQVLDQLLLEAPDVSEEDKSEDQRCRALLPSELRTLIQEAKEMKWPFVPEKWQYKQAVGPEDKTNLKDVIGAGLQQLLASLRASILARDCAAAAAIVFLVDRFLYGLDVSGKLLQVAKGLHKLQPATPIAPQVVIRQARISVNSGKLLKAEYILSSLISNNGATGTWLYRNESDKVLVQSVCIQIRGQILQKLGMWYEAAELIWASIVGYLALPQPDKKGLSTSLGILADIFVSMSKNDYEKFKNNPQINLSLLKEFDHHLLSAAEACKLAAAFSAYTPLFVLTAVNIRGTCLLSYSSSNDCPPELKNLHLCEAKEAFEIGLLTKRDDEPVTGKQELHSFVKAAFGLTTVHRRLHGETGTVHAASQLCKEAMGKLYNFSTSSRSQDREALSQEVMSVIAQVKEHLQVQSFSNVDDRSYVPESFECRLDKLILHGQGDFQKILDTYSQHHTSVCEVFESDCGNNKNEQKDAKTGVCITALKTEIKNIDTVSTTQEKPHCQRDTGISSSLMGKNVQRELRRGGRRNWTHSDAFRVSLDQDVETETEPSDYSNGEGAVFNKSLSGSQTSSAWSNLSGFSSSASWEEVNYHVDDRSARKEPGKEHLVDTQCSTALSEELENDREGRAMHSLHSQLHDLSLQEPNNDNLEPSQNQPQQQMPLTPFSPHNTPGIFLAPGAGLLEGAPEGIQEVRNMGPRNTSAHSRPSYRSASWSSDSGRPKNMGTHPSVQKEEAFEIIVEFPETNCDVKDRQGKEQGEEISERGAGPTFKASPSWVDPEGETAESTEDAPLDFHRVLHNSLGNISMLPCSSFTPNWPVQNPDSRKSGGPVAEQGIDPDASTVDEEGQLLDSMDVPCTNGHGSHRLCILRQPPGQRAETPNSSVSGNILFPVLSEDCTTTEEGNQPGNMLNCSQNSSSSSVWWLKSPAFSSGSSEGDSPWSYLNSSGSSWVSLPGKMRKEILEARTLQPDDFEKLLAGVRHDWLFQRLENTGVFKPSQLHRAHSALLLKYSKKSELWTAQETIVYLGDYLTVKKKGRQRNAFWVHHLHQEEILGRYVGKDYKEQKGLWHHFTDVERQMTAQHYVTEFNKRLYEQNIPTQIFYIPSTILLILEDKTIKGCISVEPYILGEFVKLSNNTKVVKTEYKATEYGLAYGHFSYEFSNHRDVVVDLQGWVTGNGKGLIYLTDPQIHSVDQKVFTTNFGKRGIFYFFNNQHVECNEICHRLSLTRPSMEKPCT

Compound | IC50 (ALPK1) | IC50 ([1]; Homo sapiens, HEK293) | IC50 [1]
CCOc1ccc(C(C)(C)c2csc(NC(=O)NCc3cnc(N4CCNCC4)nc3)n2)cc1 [Example A087, 1-(4-(2-(4-ethoxyphenyl)propan-2-yl)thiazol-2-yl)-3-((2-(piperazin-1-yl)pyrimidin-5-yl)methyl)urea] | 89 nM | 1740 nM | 
COc1ccc(C(C)(C)c2csc(NC(=O)NCc3ccc(C(=O)NC4CCN(C)CC4)cc3)n2)cc1 [Example A018, 4-((3-(4-(2-(4-methoxyphenyl)propan-2-yl)thiazol-2-yl)ureido)methyl)-N-(1-methylpiperidin-4-yl)benzamide] | 29 nM | 1280 nM | 
CC(C)(c1ccc(Br)cc1)c1csc(NC(=O)NCc2cnc(NCCN)nc2)n1 [Example A081, 1-((2-((2-aminoethyl)amino)pyri-midin-5-yl)methyl)-3-(4-(2-(4-bromophenyl)propan-2-yl)thiazol-2-yl)urea] | 17 nM | 1840 nM | 
CN1CCN(Cc2c(F)cc(CNC(=O)Nc3nc(C(C)(C)c4ccc(Br)cc4)cs3)cc2F)CC1 [Example A117, 1-(4-(2-(4-bromophenyl)propan-2-yl)thiazol-2-yl)-3-(3,5-difluoro-4-((4-methylpiperazin-1-yl)methyl)benzyl)urea] | 67 nM | 5030 nM | 
COc1ccc(C(C)(C)c2csc(NC(=O)NCc3cnc(N4CCNC(=O)C4)c(F)c3)n2)cc1 [Example A121, 1-((5-fluoro-6-(3-oxopiperaizn-1-yl)pyridin-3-yl)methyl)-3-(4-(2-(4-methoxyphenyl)propan-2-yl)thiazol-2-yl)urea] | 209 nM | 2020 nM | 
[2H]c1sc(NC(=O)NCCO)nc1[C@](C)(C#C)c1ccc(Cl)cc1 [Example A300, 1-(4-(2-(4-chlorophenyl)but-3-yn-2-yl)thiazol-2-yl)-3-(2-hydroxyethyl)urea] | 341 nM | 3010 nM | 
COc1ccc(C(C)(C)c2csc(NC(=O)NCc3ccc(C(=O)NCCN)cc3)n2)cc1 [Example A218, N-(2-aminoethyl)-4-((3-(4-(2-(4-methoxyphenyl)propan-2-yl)thiazol-2-yl)ureido)methyl)benza-mide] | 29 nM | 6710 nM | 
COc1ccc(C(C)(C)c2csc(NC(=O)NCc3ccc(NCCN)nc3)n2)cc1 [Example A202, 1-((6-((2-aminoethyl)amino)pyridin-3-yl)methyl)-3-(4-(2-(4-methoxyphenyl)propan-2-yl)thiazol-2-yl)urea] | 34 nM | 5710 nM | 
CN1CCN(Cc2ccc(CNC(=O)Nc3nc(C(C)(C)c4ccc(Br)cc4)cs3)cc2)CC1 [Example A016, 1-(4-(2-(4-bromophenyl)propan-2-yl)thiazol-2-yl)-3-(4-((4-methylpiperazin-1-yl)methyl)benzyl)urea] | 27 nM | 2340 nM | 
CC(C)(c1ccc(Br)cc1)c1csc(NC(=O)NCc2cnc(N3CCC(O)C3)nc2)n1 (stereo not drawn) [Example A079, 1-(4-(2-(4-bromophenyl)propan-2-yl)thiazol-2-yl)-3-((2-(3-hydroxypyrrolidin-1-yl)pyrimidin-5-yl)methyl)urea] | 170 nM | 1680 nM | 
COc1ccc(C(C)(C)c2csc(NC(=O)NC3(c4ccc(N5CCNCC5)cc4)CC3)n2)cc1 [Example A240, 1-(4-(2-(4-methoxyphenyl)propan-2-yl)thiazol-2-yl)-3-(1-(4-(piperazin-1-yl)phenyl)cyclopropyl)u-rea] | 97 nM | 1880 nM | 
CC(C)(c1ccc(Br)cc1)c1csc(NC(=O)NCCN)n1 [Example A210, 1-(2-aminoethyl)-3-(4-(2-(4-bromophenyl)propan-2-yl)thiazol-2-yl)urea] | 95 nM | 4160 nM | 
COc1ccc(C(C)(C)c2csc(NC(=O)NCc3ccc(N4CCNCC4)c(F)c3)n2)cc1 [Example A054, 1-(3-fluoro-4-(piperazin-1-yl)benzyl)-3-(4-(2-(4-methoxyphenyl)propan-2-yl)thiazol-2-yl)urea] | 30 nM | 880 nM | 
CC(C)(c1ccc(Cl)cc1)c1csc(NC(=O)NCc2ccc(N3CCNCC3)cc2)n1 [Example A046, 1-(4-(2-(4-chlorophenyl)propan-2-yl)thiazol-2-yl)-3-(4-(piperazin-1-yl)benzyl)urea] | 79 nM | 1060 nM | 
COc1ccc(C(C)(C)c2csc(NC(=O)NCc3cnc(NCCO)c(F)c3)n2)cc1 [Example A105, 1-((5-fluoro-6-((2-hydroxyethyl)amino)pyri-din-3-yl)methyl)-3-(4-(2-(4-methoxyphenyl)propan-2-yl)thiazol-2-yl)urea] | 144 nM | 1020 nM | 
COc1ccc(C(C)(C)c2csc(NC(=O)NCc3ccc(N4CCNC(C)C4)c(C(N)=O)c3)n2)cc1 (stereo not drawn) [Example A063, 5-((3-(4-(2-(4-methoxyphenyl)propan-2-yl)thiazol-2-yl)ureido)methyl)-2-(3-methylpiperazin-1-yl)benzamide] | 29 nM | 2910 nM | 
CC(C)(c1ccc(Br)cc1)c1csc(NC(=O)NCc2ccnc(N3CCNCC3)c2)n1 [Example A181, 1-(4-(2-(4-bromophenyl)propan-2-yl)thiazol-2-yl)-3-((2-(piperazin-1-yl)pyridin-4-yl)methyl)urea] | 131 nM | 1520 nM | 

Compound | IC50 (ALPK1) | IC50 ([1]; Homo sapiens, HEK293) | IC50 [1]
COc1ccc(C(C)(C)c2csc(NC(=O)NCc3ccc(N4CCNCC4)c(CO)c3)n2)cc1 [Example A058, 1-(3-(hydroxymethyl)-4-(piperazin-1-yl)benzyl)-3-(4-(2-(4-methoxyphenyl)propan-2-yl)thiazol-2-yl)urea] | 130 nM | 3100 nM | 
C#C[C@@](C)(c1ccc(Cl)cc1)c1csc(NC(=O)NC2(CO)CC2)n1 [Example A295, 1-(4-(2-(4-chlorophenyl)but-3-yn-2-yl)thiazol-2-yl)-3-(1-(hydroxymethyl)cyclopro-pyl)urea] | 522 nM | 1790 nM | 
C#C[C@@](C)(c1ccc(Cl)cc1)c1csc(NC(=O)NC[C@@H](O)CO)n1 [Example A303, 1-(4-(2-(4-chlorophenyl)but-3-yn-2-yl)thiazol-2-yl)-3-((R)-2,3-dihydroxypropyl)urea] | 101 nM | 660 nM | 
COc1ccc(C(C)(C)c2csc(NC(=O)NCc3ccc(C(=O)NC4CCN(C)CC4)nc3)n2)cc1 [Example A015, 5-((3-(4-(2-(4-methoxyphenyl)propan-2-yl)thiazol-2-yl)ureido)methyl)-N-(1-methylpiperidin-4-yl)picolinamide] | 24 nM |  | 880 nM
C#C[C@](C)(c1ccc(Cl)cc1)c1csc(NC(=O)N2CC(CN3CCNCC3)C2)n1 (stereo in doubt) [Example A291, N-(4-(2-(4-chlorophenyl)but-3-yn-2-yl)thiazol-2-yl)-3-(piperazin-1-ylmethyl)azetidine-1-carboxamide] | 109 nM | 1650 nM | 
CC(C)(c1ccc(Br)cc1)c1csc(NC(=O)NCc2ccc(OCC(=O)N3CCNCC3)cc2)n1 [Example A033, 1-(4-(2-(4-bromophenyl)propan-2-yl)thiazol-2-yl)-3-(4-(2-oxo-2-(piperazin-1-yl)ethoxy)benzyl)urea] | 80 nM | 3190 nM | 
CNS(=O)(=O)[C@H]1C[C@@H](CNC(=O)Nc2nc(C(C)(C)c3ccc(OC)cc3)cs2)C1 [Example A149, rac-(1s,3s)-3-((3-(4-(2-(4-methoxyphenyl)propan-2-yl)thiazol-2-yl)ureido)methyl)-N-methylcyclobutane-1-sulfonamide] | 155 nM | 9400 nM | 
C#CC(C)(c1ccc(Cl)cc1)c1csc(NC(=O)N(C)CCO)n1 (stereo not drawn) [Example A254, 3-(4-(2-(4-chlorophenyl)but-3-yn-2-yl)thiazol-2-yl)-1-(2-hydroxyethyl)-1-methylurea] | 548 nM | 2070 nM | 
C#C[C@](C)(c1ccc(Cl)cc1)c1csc(NC(=O)NC[C@@H](O)CO)n1 [Example A301, 1-(4-(2-(4-chlorophenyl)but-3-yn-2-yl)thiazol-2-yl)-3-((R)-2,3-dihydroxypropyl)urea] | 354 nM | 2220 nM | 
CC(C)(c1ccc(Br)cc1)c1csc(NC(=O)NCCCS(N)(=O)=O)n1 [Example A132, 3-(3-(4-(2-(4-bromophenyl)propan-2-yl)thiazol-2-yl)ureido)propane-1-sulfonamide] | 80 nM | 4560 nM | 
CC(C)(c1ccc(Br)cc1)c1csc(NC(=O)NCc2ccc(N3CCNCC3)c(C(N)=O)c2)n1 [Example A052, 5-((3-(4-(2-(4-bromophenyl)propan-2-yl)thiazol-2-yl)ureido)methyl)-2-(piperazin-1-yl)benzamide] | 24 nM | 1960 nM | 
C#C[C@](C)(c1ccc(Br)cc1)c1csc(NC(=O)N2CC(CO)C2)n1 [Example A166, (R)-N-(4-(2-(4-bromophenyl)but-3-yn-2-yl)thiazol-2-yl)-3-(hydroxymethyl)azetidine-1-carboxamide] | 25 nM | 5710 nM | 
C#C[C@@](C)(c1ccc(Br)cc1)c1csc(NC(=O)N2CC(CO)C2)n1 [Example A167, (S)-N-(4-(2-(4-bromophenyl)but-3-yn-2-yl)thiazol-2-yl)-3-(hydroxymethyl)azetidine-1-carboxamide] | 7 nM | 740 nM | 
CC(C)(c1ccc(Br)cc1)c1csc(NC(=O)NCc2cnc(N3CCCNCC3)nc2)n1 [Example A091, 1-((2-(1,4-diazepan-1-yl)pyrimidin-5-yl)methyl)-3-(4-(2-(4-bromophenyl)propan-2-yl)thiazol-2-yl)urea] | 135 nM | 3450 nM | 
CC(C)(c1ccc(Br)cc1)c1csc(NC(=O)NCc2ccc(OCCN)cc2)n1 [Example A212, 1-(4-(2-aminoethoxy)benzyl)-3-(4-(2-(4-bromophenyl)propan-2-yl)thiazol-2-yl)urea] | 289 nM | 2750 nM | 
CC(C)(c1ccc(Br)cc1)c1csc(NC(=O)NCCF)n1 [Example A020, 1-(4-(2-(4-bromophenyl)propan-2-yl)thiazol-2-yl)-3-(2-fluoroethyl)urea] | 144 nM | 6790 nM | 
